# Source: US20130252890A1, “6,7-DIHYDRO-5H-BENZO[7]ANNULENE DERIVATIVES, PROCESS FOR PREPARATION THEREOF, PHARMACEUTICAL PREPARATIONS COMPRISING THEM, AND THE USE THEREOF FOR PRODUCTION OF MEDICAMENTS” (BAYER INTELLECTUAL PROPERTY GMBH, priority 2010, published 2013)
# Target: T1, oestrogen receptor (ER) (Homo sapiens, UniProt P03372)
# T1 construct: These MVLN cells express, along with the functional oestrogen receptor (ER), a reporter construct; endogenous in cells; host or cells: MVLN cells (MCF7 derivative carrying a luciferase reporter construct)
# T1 sequence (P03372 1-595): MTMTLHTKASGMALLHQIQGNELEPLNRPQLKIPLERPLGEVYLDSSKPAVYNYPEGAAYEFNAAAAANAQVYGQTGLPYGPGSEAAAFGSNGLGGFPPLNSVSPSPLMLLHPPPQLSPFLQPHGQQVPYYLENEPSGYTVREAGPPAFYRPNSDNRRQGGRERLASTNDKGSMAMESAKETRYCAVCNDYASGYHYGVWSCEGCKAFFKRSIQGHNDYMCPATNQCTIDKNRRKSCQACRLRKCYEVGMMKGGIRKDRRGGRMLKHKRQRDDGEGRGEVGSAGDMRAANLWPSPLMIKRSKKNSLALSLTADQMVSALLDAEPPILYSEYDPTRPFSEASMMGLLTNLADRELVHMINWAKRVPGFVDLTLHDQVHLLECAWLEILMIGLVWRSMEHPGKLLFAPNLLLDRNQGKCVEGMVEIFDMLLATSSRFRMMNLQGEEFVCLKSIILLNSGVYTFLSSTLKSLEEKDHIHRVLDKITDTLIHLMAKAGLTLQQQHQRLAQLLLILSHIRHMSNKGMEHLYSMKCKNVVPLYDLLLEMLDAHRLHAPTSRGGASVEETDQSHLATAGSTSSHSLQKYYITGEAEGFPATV
# Experiment: Anti-oestrogenic action in MVLN cells (inhibition of estradiol-induced luciferase)
# Type: cell-based
# Conditions: inhibition of estradiol-induced luciferase signal, value of Ex. 44 is a mean value, read-out: Antioestrogenic action in vitro: MVLN transactivation antagonism IC50
# Excerpt: The anti-oestrogenic action of the claimed pharmacological compounds was investigated in so-called MVLN cells in vitro. MVLN cells are derivatives of the hormone-responsive MCF7 breast cancer cells known by a person skilled in the art. These MVLN cells express, along with the functional oestrogen receptor (ER), a reporter construct, which under ER-activation expresses luciferase. Determination of the activity of the induced luciferase permits a direct conclusion on the oestrogen properties of substances. To investigate the anti-oestrogenic properties of the pharmacological compounds, they were investigated in the presence of oestrogen for their potential for inhibiting the luciferase signal induced by estradiol. The claimed pharmacological test substances were investigated in MVLN cells for their anti-oestrogenic potential, as described (see Table 2).
row,Structure (SMILES),IC50 [nM]
1,"O=S(=O)(CCCCN(CCO)CCCCCCC1=C(c2ccc(F)cc2)CCCc2cc(O)ccc21)CCC(F)(C(F)(F)F)C(F)(F)F [Example 109, 8-(4-Fluorophenyl)-9-{6-[(2-hydroxyethyl)(4-{[3,4,4,4-tetrafluoro-3-(trifluoromethyl)butyl]sulphonyl}butyl)amino]hexyl}-6,7-dihydro-5H-benzo[7]annulen-3-ol]",26
2,"O=S(=O)(CCCCN(CCO)CCCCCCC1=C(c2ccc(F)cc2)CCCc2cc(O)c(F)cc21)CCC(F)(C(F)(F)F)C(F)(F)F [Example 138, 2-Fluoro-8-(4-fluorophenyl)-9-{6-[(2-hydroxyethyl)(4-{[3,4,4,4-tetrafluoro-3-(trifluoromethyl)butyl]sulphonyl}butyl)amino]hexyl}-6,7-dihydro-5H-benzo[7]annulen-3-ol]",21
3,"O=S(=O)(CCCN(CCO)CCCCCCC1=C(c2ccc(F)cc2)CCCc2cc(O)ccc21)CCC(F)(C(F)(F)F)C(F)(F)F [Example 108, 8-(4-Fluorophenyl)-9-{6-[(2-hydroxyethyl)(3-{[3,4,4,4-tetrafluoro-3-(trifluoromethyl)butyl]sulphonyl}propyl)amino]hexyl}-6,7-dihydro-5H-benzo[7]annulen-3-ol]",69
4,"CN(CCCCCCC1=C(c2ccc(F)cc2)CCCc2c1ccc(O)c2F)CCCCS(=O)(=O)CCCC(F)(F)C(F)(F)F [Example 43, 4-Fluoro-8-(4-fluorophenyl)-9-[6-(methyl{4-[(4,4,5,5,5-pentafluoropentyl)sulphonyl]butyl}amino)hexyl]-6,7-dihydro-5H-benzo[7]annulen-3-ol]",20
5,"CN(CCCCCCC1=C(c2ccc(F)cc2)CCCc2cc(O)ccc21)CCCS(=O)(=O)C1CCC(F)(F)CC1 [Example 121, 9-{6-[{3-[(4,4-difluorocyclohexyl)sulphonyl]propyl}(methyl)amino]hexyl}-8-(4-fluorophenyl)-6,7-dihydro-5H-benzo[7]annulen-3-ol]",41
6,"CC(C)(O)CN(CCCCCCC1=C(c2ccc(F)cc2)CCCc2cc(O)ccc21)CCCS(=O)(=O)CCC(F)(F)F [Example 119, 8-(4-fluorophenyl)-9-{6-[(2-hydroxy-2-methylpropyl){3-[(3,3,3-trifluoropropyl)sulphonyl]propyl}amino]hexyl}-6,7-dihydro-5H-benzo[7]annulen-3-ol]",80
7,"CCN(CCCCCCC1=C(c2cc(F)cc(F)c2)CCCc2cc(O)ccc21)CCCS(=O)(=O)CCC(F)(F)F [Example 14, 8-(3,5-Difluorophenyl)-9-[6-(ethyl{3-[(3,3,3-trifluoropropyl)sulphonyl]propyl}amino)hexyl]-6,7-dihydro-5H-benzo[7]annulen-3-ol]",168
8,"CN(CCCCCCC1=C(c2ccc(F)cc2)CCCc2cc(O)ccc21)CCCSCCCC(F)(F)C(F)(F)F [Example 78, 8-(4-Fluorophenyl)-9-[6-(methyl{3-[(4,4,5,5,5-pentafluoropentyl)sulphanyl]propyl}amino)hexyl]-6,7-dihydro-5H-benzo[7]annulen-3-ol]",31
9,"CN(CCCCCCC1=C(c2cc(F)cc(F)c2)CCCc2cc(O)ccc21)CCC[S+]([O-])CCC(F)(F)F (stereo not drawn) [Example 5, 8-(3,5-Difluorophenyl)-9-[6-(methyl{3-[(3,3,3-trifluoropropyl)sulphinyl]propyl}amino)hexyl]-6,7-dihydro-5H-benzo[7]annulen-3-ol]",46
10,"CN(CCCCCCC1=C(c2ccc(F)cc2)CCCc2c1ccc(O)c2F)CCCS(=O)(=O)CCCC(F)(F)C(F)(F)F [Example 33, 4-Fluoro-8-(4-fluorophenyl)-9-[6-(methyl{3-[(4,4,5,5,5-pentafluoropentyl)sulphonyl]propyl}amino)hexyl]-6,7-dihydro-5H-benzo[7]annulen-3-ol]",11
11,"COCCCN(CCCCCCC1=C(c2ccc(F)c(F)c2)CCCc2cc(O)ccc21)CCCS(=O)(=O)CCCC(F)(F)C(F)(F)F [Example 32, 8-(3,4-Difluorophenyl)-9-{6-[(3-methoxypropyl){3-[(4,4,5,5,5-pentafluoropentyl)sulphonyl]propyl}amino]hexyl}-6,7-dihydro-5H-benzo[7]annulen-3-ol]",33
12,"O=S(=O)(CCCCC(F)(F)F)CCCNCCCCCCC1=C(c2ccc(F)cc2)CCCc2cc(O)ccc21 [Example 112, 8-(4-Fluorophenyl)-9-[6-({3-[(5,5,5-trifluoropentyl)sulphonyl]propyl}amino)hexyl]-6,7-dihydro-5H-benzo[7]annulen-3-ol]",7
13,"CC(C)(O)CN(CCCCCCC1=C(c2ccc(F)cc2)CCCc2cc(O)ccc21)CCC[S+]([O-])CCC(F)(F)F (stereo not drawn) [Example 120, 8-(4-fluorophenyl)-9-{6-[(2-hydroxy-2-methylpropyl){3-[(3,3,3-trifluoropropyl)sulphinyl]propyl}amino)hexyl}-6,7-dihydro-5H-benzo[7]annulen-3-ol]",56
14,"CN(CCCCCCC1=C(c2ccc(F)cc2)CCCc2c1ccc(O)c2F)CCCS(=O)(=O)CCC(F)(F)C(F)(F)F [Example 34, 4-Fluoro-8-(4-fluorophenyl)-9-[6-(methyl{3-[(3,3,4,4,4-pentafluorobutyl)sulphonyl]propyl}amino)hexyl]-6,7-dihydro-5H-benzo[7]annulen-3-ol]",27

# Other lines, results leading:
row,IC50 [nM],Structure (SMILES)
1,9,"CN(CCCCCCC1=C(c2cc(F)ccc2F)CCCc2cc(O)ccc21)CCCCS(=O)(=O)CCCC(F)(F)F [Example 143, 8-(2,5-Difluorophenyl)-9-[6-(methyl{4-[(4,4,4-trifluorobutyl)sulphonyl]butyl}amino)hexyl]-6,7-dihydro-5H-benzo[7]annulen-3-ol]"
2,4,"CN(CCCCCCC1=C(c2ccc(F)cc2)CCCc2cc(O)c(F)cc21)CCCS(=O)(=O)CCCCCC(F)(F)F [Example 140, 2-Fluoro-8-(4-fluorophenyl)-9-[6-(methyl{3-[(6,6,6-trifluorohexyl)sulphonyl]propyl}amino)hexyl]-6,7-dihydro-5H-benzo[7]annulen-3-ol]"
3,27,"CN(CCCCCCC1=C(c2ccc(F)cc2)CCCc2c1ccc(O)c2F)CCCS(=O)(=O)CCCC(F)(F)F [Example 38, 4-Fluoro-8-(4-fluorophenyl)-9-[6-(methyl{3-[(4,4,4-trifluorobutyl)sulphonyl]propyl}amino)hexyl]-6,7-dihydro-5H-benzo[7]annulen-3-ol]"
4,5,"C[C@H](O)CN(CCCCCCC1=C(c2ccc(F)cc2)CCCc2cc(O)ccc21)CCCCS(=O)(=O)CCCC(F)(F)F [Example 93, 8-(4-Fluorophenyl)-9-[6-([(2S)-2-hydroxypropyl]{4-[(4,4,4-trifluorobutyl)sulphonyl]butyl}amino)hexyl]-6,7-dihydro-5H-benzo[7]annulen-3-ol]"
5,48,"CN(CCCCCCC1=C(c2cc(F)cc(F)c2)CCCc2cc(O)ccc21)CCCS(=O)(=O)CCCC(F)(F)C(F)(F)F [Example 1, 8-(3,5-Difluorophenyl)-9-[6-(methyl{3-[(4,4,5,5,5-pentafluoropentyl)sulphonyl]propyl}amino)hexyl]-6,7-dihydro-5H-benzo[7]annulen-3-ol]"
6,18,"CN(CCCCCCC1=C(c2cc(F)cc(F)c2)CCCc2cc(O)ccc21)CCCS(=O)(=O)CCCCC(F)(F)F [Example 70, 8-(3,5-Difluorophenyl)-9-[6-(methyl{3-[(5,5,5-trifluoropentyl)sulphonyl]propyl}amino)hexyl]-6,7-dihydro-5H-benzo[7]annulen-3-ol]"
7,21,"N#CCN(CCCCCCC1=C(c2ccc(F)cc2)CCCc2cc(O)ccc21)CCCS(=O)(=O)CCCCC(F)(F)F [Example 141, ({6-[8-(4-Fluorophenyl)-3-hydroxy-6,7-dihydro-5H-benzo[7]annulen-9-yl]hexyl}{3-[(5,5,5-trifluoropentyl)sulphonyl]propyl}amino)acetonitrile]"
8,9,CN(CCCCCCC1=C(c2ccccc2F)CCCc2cc(O)ccc21)CCCS(=O)(=O)CCCC(F)(F)C(F)(F)F [Example 126]
9,5,"CN(CCCCCCC1=C(c2ccc(F)cc2F)CCCc2cc(O)ccc21)CCCS(=O)(=O)CCCCCC(F)(F)F [Example 135, 8-(2,4-Difluorophenyl)-9-[6-(methyl{3-[(6,6,6-trifluorohexyl)sulphonyl]propyl}amino)hexyl]-6,7-dihydro-5H-benzo[7]annulen-3-ol]"
10,13,"COC(=O)CCN(CCCCCCC1=C(c2ccc(F)cc2)CCCc2cc(O)ccc21)CCCCS(=O)(=O)CCCC(F)(F)F [Example 83, Methyl-N-{6-[8-(4-fluorophenyl)-3-hydroxy-6,7-dihydro-5H-benzo[7]annulen-9-yl]hexyl}-N-{4-[(4,4,4-trifluorobutyl)sulphonyl]butyl}-beta-alaninate]"
